According to the supplement of paper PMC10307832:

Columns and labels:
Experiment in all cases: relative viability (nuclei count vs DMSO), 5 days (fraction); higher = more cells survive
[1] = compound: O=C(O)c1ccc2c(c1)nc(Nc1cccc(Cl)c1)c1ccncc12 [Silmitasertib] + CS(=O)(=O)N1CCN(Cc2cc3nc(-c4cccc5[nH]ncc45)nc(N4CCOCC4)c3s2)CC1 [Pictilisib] (partner 1 µM)
Outline: (§1)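 Lung cancer cell lines in 1536-well plates got either a single drug or a fixed anchor-drug dose together with five library-drug doses (not always all listed) in √10 steps, by pin tool, on the day after seeding. Nuclei were counted after 5 days, and relative viability is the treated-to-vehicle ratio of nuclei counts. Values are medians of duplicate plates.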

[2] = compound: O=C(O)c1ccc2c(c1)nc(Nc1cccc(Cl)c1)c1ccncc12 [Silmitasertib] + CS(=O)(=O)CCNCc1ccc(-c2ccc3ncnc(Nc4ccc(OCc5cccc(F)c5)c(Cl)c4)c3c2)o1 [Lapatinib] (partner 2 µM)
Outline: as §1

[3] = compound: O=C(O)c1ccc2c(c1)nc(Nc1cccc(Cl)c1)c1ccncc12 [Silmitasertib] + COc1cc2c(Oc3ccc(NC(=O)C4(C(=O)Nc5ccc(F)cc5)CC4)cc3F)ccnc2cc1OCCCN1CCOCC1 [Foretinib] (partner 0.25 µM)
Outline: as §1

[4] = compound: O=C(O)c1ccc2c(c1)nc(Nc1cccc(Cl)c1)c1ccncc12 [Silmitasertib] + C[C@]1(O)C[C@@H](c2nc(-c3ccc4ccc(-c5ccccc5)nc4c3)c3c(N)nccn32)C1 [Linsitinib] (partner 1 µM)
Outline: as §1

[5] = compound: O=C(O)c1ccc2c(c1)nc(Nc1cccc(Cl)c1)c1ccncc12 [Silmitasertib] + N=C(N)NC(=N)NCCc1ccccc1 [Phenformin] (partner 250 µM)
Outline: as §1

Silmitasertib + Olaparib = compound: O=C(O)c1ccc2c(c1)nc(Nc1cccc(Cl)c1)c1ccncc12 [Silmitasertib] + O=C(c1cc(Cc2n[nH]c(=O)c3ccccc23)ccc1F)N1CCN(C(=O)C2CC2)CC1 [Olaparib] (partner 8 µM)
Outline: as §1

[6] = compound: O=C(O)c1ccc2c(c1)nc(Nc1cccc(Cl)c1)c1ccncc12 [Silmitasertib] + CC1(C)CCC(c2ccc(Cl)cc2)=C(CN2CCN(c3ccc(C(=O)NS(=O)(=O)c4ccc(N[C@H](CCN5CCOCC5)CSc5ccccc5)c(S(=O)(=O)C(F)(F)F)c4)cc3)CC2)C1 [Navitoclax] (partner 0.5 µM)
Outline: as §1

[7] = compound: O=C(O)c1ccc2c(c1)nc(Nc1cccc(Cl)c1)c1ccncc12 [Silmitasertib] + Nc1ncn([C@H]2C[C@H](O)[C@@H](CO)O2)c(=O)n1 [Decitabine] (partner 2 µM)
Outline: as §1

[8] = compound: O=C(O)c1ccc2c(c1)nc(Nc1cccc(Cl)c1)c1ccncc12 [Silmitasertib] + Cc1nc(NC(=O)N2CCC[C@H]2C(N)=O)sc1-c1ccnc(C(C)(C)C(F)(F)F)c1 [Alpelisib] (partner 2 µM)
Outline: as §1

[9] = compound: O=C(O)c1ccc2c(c1)nc(Nc1cccc(Cl)c1)c1ccncc12 [Silmitasertib] + C[C@@H](Oc1cc(-c2cnn(C3CCNCC3)c2)cnc1N)c1c(Cl)ccc(F)c1Cl [Crizotinib] (partner 1 µM)
Outline: as §1

Silmitasertib = compound: O=C(O)c1ccc2c(c1)nc(Nc1cccc(Cl)c1)c1ccncc12 [Silmitasertib]
Outline: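 Lung cancer cell lines in 1536-well plates were kept overnight at 37 °C, then pinned with five library-drug doses (not always all listed) spaced by √10 on vehicle-anchored plates. After 5 days without medium change, cells were fixed, permeabilised and Hoechst-stained in one step, imaged at 4×, and nuclei were counted with MetaXpress. Viability is treated-well nuclei divided by vehicle-well nuclei, taken as the median over plates. Plates passed only with control CV below 25% and at least one doubling.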

[10] = compound: O=C(O)c1ccc2c(c1)nc(Nc1cccc(Cl)c1)c1ccncc12 [Silmitasertib] + CC(=O)Nc1cccc(-n2c(=O)n(C3CC3)c(=O)c3c(Nc4ccc(I)cc4F)n(C)c(=O)c(C)c32)c1 [Trametinib] (partner 0.02 µM)
Outline: as §1

Silmitasertib + AZD7762 = compound: O=C(O)c1ccc2c(c1)nc(Nc1cccc(Cl)c1)c1ccncc12 [Silmitasertib] + NC(=O)Nc1cc(-c2cccc(F)c2)sc1C(=O)N[C@H]1CCCNC1 [AZD7762] (partner 0.2 µM)
Outline: as §1

Silmitasertib + OSI-027 = compound: O=C(O)c1ccc2c(c1)nc(Nc1cccc(Cl)c1)c1ccncc12 [Silmitasertib] + COc1cccc2cc(-c3nc([C@H]4CC[C@H](C(=O)O)CC4)n4ncnc(N)c34)[nH]c12 [OSI-027] (partner 0.5 µM)
Outline: as §1

[11] = compound: O=C(O)c1ccc2c(c1)nc(Nc1cccc(Cl)c1)c1ccncc12 [Silmitasertib] + Nc1nc2[nH]cc(CCc3ccc(C(=O)N[C@@H](CCC(=O)O)C(=O)O)cc3)c2c(=O)[nH]1 [Pemetrexed] (partner 0.2 µM)
Outline: as §1

[12] = compound: O=C(O)c1ccc2c(c1)nc(Nc1cccc(Cl)c1)c1ccncc12 [Silmitasertib] + CC(=O)c1c(C)c2cnc(Nc3ccc(N4CCNCC4)cn3)nc2n(C2CCCC2)c1=O [Palbociclib] (partner 0.5 µM)
Outline: as §1

[13] = compound: O=C(O)c1ccc2c(c1)nc(Nc1cccc(Cl)c1)c1ccncc12 [Silmitasertib] + O=C(CCCCCCC(=O)Nc1ccccc1)NO [Vorinostat] (partner 1 µM)
Outline: as §1

[14] = compound: O=C(O)c1ccc2c(c1)nc(Nc1cccc(Cl)c1)c1ccncc12 [Silmitasertib] + Cc1cc(Nc2cc(N3CCN(C)CC3)nc(Sc3ccc(NC(=O)C4CC4)cc3)n2)n[nH]1 [Tozasertib] (partner 0.1 µM)
Outline: as §1

[15] = compound: O=C(O)c1ccc2c(c1)nc(Nc1cccc(Cl)c1)c1ccncc12 [Silmitasertib] + CC(C)C[C@H](NC(=O)[C@H](Cc1ccccc1)NC(=O)c1cnccn1)B(O)O [Bortezomib] (partner 0.002 µM)
Outline: as §1

A549 gave a relative viability ([1]; first compound 0.04 µM) of 0.582, a relative viability ([1]; first compound 0.4 µM) of 0.566 and a relative viability ([1]; first compound 1.265 µM) of 0.497. The relative viability ([1]; first compound 4 µM) was 0.513, the relative viability ([2]; first compound 0.04 µM) was 1.23 and the relative viability ([2]; first compound 0.4 µM) was 1.08. It also gave a relative viability ([2]; first compound 1.265 µM) of 0.781, a relative viability ([2]; first compound 4 µM) of 0.736 and a relative viability ([3]; first compound 0.04 µM) of 0.961. It also gave a relative viability ([3]; first compound 0.4 µM) of 0.819, a relative viability ([3]; first compound 1.265 µM) of 0.952 and a relative viability ([3]; first compound 4 µM) of 0.858. The relative viability ([4]; first compound 0.04 µM) was 0.792, the relative viability ([4]; first compound 1.265 µM) was 0.507 and the relative viability ([4]; first compound 4 µM) was 0.678. The relative viability ([5]; first compound 0.04 µM) was 0.237, the relative viability ([5]; first compound 0.4 µM) was 0.131 and the relative viability ([5]; first compound 1.265 µM) was 0.121. It also gave a relative viability ([5]; first compound 4 µM) of 0.161, a relative viability (Silmitasertib + Olaparib; first compound 0.04 µM) of 0.301 and a relative viability (Silmitasertib + Olaparib; first compound 1.265 µM) of 0.273. It also gave a relative viability (Silmitasertib + Olaparib; first compound 4 µM) of 0.12, a relative viability ([6]; first compound 0.04 µM) of 1.44 and a relative viability ([6]; first compound 0.4 µM) of 1.16. The relative viability ([6]; first compound 1.265 µM) was 1.27, the relative viability ([6]; first compound 4 µM) was 1.04 and the relative viability ([7]; first compound 0.04 µM) was 0.244. It also gave a relative viability ([7]; first compound 1.265 µM) of 0.27, a relative viability ([7]; first compound 4 µM) of 0.158 and a relative viability ([8]; first compound 0.04 µM) of 1.02. It also gave a relative viability ([8]; first compound 0.4 µM) of 0.918, a relative viability ([8]; first compound 1.265 µM) of 0.828 and a relative viability ([8]; first compound 4 µM) of 0.869. The relative viability ([9]; first compound 0.04 µM) was 0.819, the relative viability ([9]; first compound 0.4 µM) was 0.677 and the relative viability ([9]; first compound 1.265 µM) was 0.777. The relative viability ([9]; first compound 4 µM) was 0.748, the relative viability (Silmitasertib; 0.04 µM) was 1.03 and the relative viability (Silmitasertib; 0.4 µM) was 0.994. The relative viability (Silmitasertib; 1.265 µM) was 1 and the relative viability (Silmitasertib; 4 µM) was 0.882.
Work on NCI-H1648 yielded a relative viability ([10]; first compound 0.04 µM) of 0.634, a relative viability ([10]; first compound 0.4 µM) of 0.366 and a relative viability ([10]; first compound 1.265 µM) of 0.474. The relative viability ([10]; first compound 4 µM) was 0.527, the relative viability (Silmitasertib + AZD7762; first compound 0.04 µM) was 0.709 and the relative viability (Silmitasertib + AZD7762; first compound 0.4 µM) was 0.624. It also gave a relative viability (Silmitasertib + AZD7762; first compound 1.265 µM) of 0.739, a relative viability (Silmitasertib + AZD7762; first compound 4 µM) of 0.423 and a relative viability (Silmitasertib + OSI-027; first compound 0.04 µM) of 0.255. For the same cell line, the relative viability (Silmitasertib + OSI-027; first compound 1.265 µM) was 0.267, the relative viability (Silmitasertib + OSI-027; first compound 4 µM) was 0.245 and the relative viability ([11]; first compound 0.04 µM) was 0.689. The relative viability ([11]; first compound 0.4 µM) was 0.699, the relative viability ([11]; first compound 1.265 µM) was 0.863 and the relative viability ([11]; first compound 4 µM) was 0.679. The relative viability (Silmitasertib + Olaparib; first compound 0.04 µM) was 0.84, the relative viability (Silmitasertib + Olaparib; first compound 0.4 µM) was 0.525 and the relative viability (Silmitasertib + Olaparib; first compound 1.265 µM) was 1.07. It also gave a relative viability (Silmitasertib + Olaparib; first compound 4 µM) of 0.876, a relative viability ([7]; first compound 0.04 µM) of 0.49 and a relative viability ([7]; first compound 0.4 µM) of 0.55. It also gave a relative viability ([7]; first compound 1.265 µM) of 0.494, a relative viability ([7]; first compound 4 µM) of 0.559 and a relative viability ([12]; first compound 0.04 µM) of 0.256. It also gave a relative viability ([12]; first compound 0.4 µM) of 0.229, a relative viability ([12]; first compound 1.265 µM) of 0.301 and a relative viability ([12]; first compound 4 µM) of 0.327. It also gave a relative viability ([13]; first compound 0.04 µM) of 0.435, a relative viability ([13]; first compound 0.4 µM) of 0.517 and a relative viability ([13]; first compound 1.265 µM) of 0.271. The relative viability ([13]; first compound 4 µM) was 0.574, the relative viability ([14]; first compound 0.04 µM) was 0.61 and the relative viability ([14]; first compound 1.265 µM) was 0.283. For the same cell line, the relative viability ([14]; first compound 4 µM) was 0.363, the relative viability (Silmitasertib; 0.04 µM) was 1.26 and the relative viability (Silmitasertib; 0.4 µM) was 0.63. The relative viability (Silmitasertib; 1.265 µM) was 0.889 and the relative viability (Silmitasertib; 4 µM) was 0.684.
EBC-1 was tested, and the relative viability ([1]; first compound 0.04 µM) was 0.534, the relative viability ([1]; first compound 0.4 µM) was 0.375 and the relative viability ([1]; first compound 1.265 µM) was 0.178. For the same cell line, the relative viability ([1]; first compound 4 µM) was 0.139, the relative viability ([2]; first compound 0.04 µM) was 0.225 and the relative viability ([2]; first compound 0.4 µM) was 0.185. The relative viability ([2]; first compound 1.265 µM) was 0.2, the relative viability ([2]; first compound 4 µM) was 0.192 and the relative viability ([3]; first compound 0.04 µM) was 0.0961. It also gave a relative viability ([3]; first compound 0.4 µM) of 0.0977, a relative viability ([3]; first compound 1.265 µM) of 0.0913 and a relative viability ([3]; first compound 4 µM) of 0.0847. The relative viability ([15]; first compound 0.04 µM) was 0.652, the relative viability ([15]; first compound 0.4 µM) was 0.39 and the relative viability ([15]; first compound 1.265 µM) was 0.347. The relative viability ([15]; first compound 4 µM) was 0.239, the relative viability ([4]; first compound 0.04 µM) was 0.982 and the relative viability ([4]; first compound 0.4 µM) was 0.655. For the same cell line, the relative viability ([4]; first compound 1.265 µM) was 0.471, the relative viability ([4]; first compound 4 µM) was 0.222 and the relative viability (Silmitasertib + Olaparib; first compound 0.04 µM) was 0.796. For the same cell line, the relative viability (Silmitasertib + Olaparib; first compound 0.4 µM) was 0.371, the relative viability (Silmitasertib + Olaparib; first compound 1.265 µM) was 0.423 and the relative viability (Silmitasertib + Olaparib; first compound 4 µM) was 0.212. It also gave a relative viability ([6]; first compound 0.04 µM) of 0.542, a relative viability ([6]; first compound 0.4 µM) of 0.154 and a relative viability ([6]; first compound 1.265 µM) of 0.134. For the same cell line, the relative viability ([6]; first compound 4 µM) was 0.168, the relative viability ([8]; first compound 0.04 µM) was 0.925 and the relative viability ([8]; first compound 0.4 µM) was 0.601. It also gave a relative viability ([8]; first compound 1.265 µM) of 0.262, a relative viability ([8]; first compound 4 µM) of 0.211 and a relative viability ([9]; first compound 0.04 µM) of 0.189. The relative viability ([9]; first compound 0.4 µM) was 0.16, the relative viability ([9]; first compound 1.265 µM) was 0.171 and the relative viability ([9]; first compound 4 µM) was 0.157. It also gave a relative viability (Silmitasertib; 0.04 µM) of 1.09, a relative viability (Silmitasertib; 0.4 µM) of 0.693 and a relative viability (Silmitasertib; 1.265 µM) of 0.591. It also gave a relative viability (Silmitasertib; 4 µM) of 0.29.
